Source: US8410112B2, “Compounds useful as inhibitors of ATR kinase” (Vertex Pharmaceuticals Incorporated, priority 2008, dated 2013)
pKi: −log10 of the molar value.

Target: T1, full-length ATR (Homo sapiens, UniProt Q13535)
T1 construct: in the presence of 5 nM full-length ATR
Test: ATR Inhibition Assay (radioactive-phosphate incorporation)
Format: biochemical
Settings: Ki(app); 5 nM full-length ATR, 10 μM ATP, 800 μM target peptide, 25° C.
Outline: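 After a 10-min pre-incubation of compound with 5 nM enzyme at 25 °C, ATP was added to start the reaction (final 10 μM [γ-33P]ATP, 800 μM peptide; Tris/HCl pH 7.5, MgCl2, DTT), which ran 24 h. Incorporated 33P was captured on phosphocellulose filters, and Ki(app) was fitted by non-linear regression.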

T1 sequence (Q13535 whole entry): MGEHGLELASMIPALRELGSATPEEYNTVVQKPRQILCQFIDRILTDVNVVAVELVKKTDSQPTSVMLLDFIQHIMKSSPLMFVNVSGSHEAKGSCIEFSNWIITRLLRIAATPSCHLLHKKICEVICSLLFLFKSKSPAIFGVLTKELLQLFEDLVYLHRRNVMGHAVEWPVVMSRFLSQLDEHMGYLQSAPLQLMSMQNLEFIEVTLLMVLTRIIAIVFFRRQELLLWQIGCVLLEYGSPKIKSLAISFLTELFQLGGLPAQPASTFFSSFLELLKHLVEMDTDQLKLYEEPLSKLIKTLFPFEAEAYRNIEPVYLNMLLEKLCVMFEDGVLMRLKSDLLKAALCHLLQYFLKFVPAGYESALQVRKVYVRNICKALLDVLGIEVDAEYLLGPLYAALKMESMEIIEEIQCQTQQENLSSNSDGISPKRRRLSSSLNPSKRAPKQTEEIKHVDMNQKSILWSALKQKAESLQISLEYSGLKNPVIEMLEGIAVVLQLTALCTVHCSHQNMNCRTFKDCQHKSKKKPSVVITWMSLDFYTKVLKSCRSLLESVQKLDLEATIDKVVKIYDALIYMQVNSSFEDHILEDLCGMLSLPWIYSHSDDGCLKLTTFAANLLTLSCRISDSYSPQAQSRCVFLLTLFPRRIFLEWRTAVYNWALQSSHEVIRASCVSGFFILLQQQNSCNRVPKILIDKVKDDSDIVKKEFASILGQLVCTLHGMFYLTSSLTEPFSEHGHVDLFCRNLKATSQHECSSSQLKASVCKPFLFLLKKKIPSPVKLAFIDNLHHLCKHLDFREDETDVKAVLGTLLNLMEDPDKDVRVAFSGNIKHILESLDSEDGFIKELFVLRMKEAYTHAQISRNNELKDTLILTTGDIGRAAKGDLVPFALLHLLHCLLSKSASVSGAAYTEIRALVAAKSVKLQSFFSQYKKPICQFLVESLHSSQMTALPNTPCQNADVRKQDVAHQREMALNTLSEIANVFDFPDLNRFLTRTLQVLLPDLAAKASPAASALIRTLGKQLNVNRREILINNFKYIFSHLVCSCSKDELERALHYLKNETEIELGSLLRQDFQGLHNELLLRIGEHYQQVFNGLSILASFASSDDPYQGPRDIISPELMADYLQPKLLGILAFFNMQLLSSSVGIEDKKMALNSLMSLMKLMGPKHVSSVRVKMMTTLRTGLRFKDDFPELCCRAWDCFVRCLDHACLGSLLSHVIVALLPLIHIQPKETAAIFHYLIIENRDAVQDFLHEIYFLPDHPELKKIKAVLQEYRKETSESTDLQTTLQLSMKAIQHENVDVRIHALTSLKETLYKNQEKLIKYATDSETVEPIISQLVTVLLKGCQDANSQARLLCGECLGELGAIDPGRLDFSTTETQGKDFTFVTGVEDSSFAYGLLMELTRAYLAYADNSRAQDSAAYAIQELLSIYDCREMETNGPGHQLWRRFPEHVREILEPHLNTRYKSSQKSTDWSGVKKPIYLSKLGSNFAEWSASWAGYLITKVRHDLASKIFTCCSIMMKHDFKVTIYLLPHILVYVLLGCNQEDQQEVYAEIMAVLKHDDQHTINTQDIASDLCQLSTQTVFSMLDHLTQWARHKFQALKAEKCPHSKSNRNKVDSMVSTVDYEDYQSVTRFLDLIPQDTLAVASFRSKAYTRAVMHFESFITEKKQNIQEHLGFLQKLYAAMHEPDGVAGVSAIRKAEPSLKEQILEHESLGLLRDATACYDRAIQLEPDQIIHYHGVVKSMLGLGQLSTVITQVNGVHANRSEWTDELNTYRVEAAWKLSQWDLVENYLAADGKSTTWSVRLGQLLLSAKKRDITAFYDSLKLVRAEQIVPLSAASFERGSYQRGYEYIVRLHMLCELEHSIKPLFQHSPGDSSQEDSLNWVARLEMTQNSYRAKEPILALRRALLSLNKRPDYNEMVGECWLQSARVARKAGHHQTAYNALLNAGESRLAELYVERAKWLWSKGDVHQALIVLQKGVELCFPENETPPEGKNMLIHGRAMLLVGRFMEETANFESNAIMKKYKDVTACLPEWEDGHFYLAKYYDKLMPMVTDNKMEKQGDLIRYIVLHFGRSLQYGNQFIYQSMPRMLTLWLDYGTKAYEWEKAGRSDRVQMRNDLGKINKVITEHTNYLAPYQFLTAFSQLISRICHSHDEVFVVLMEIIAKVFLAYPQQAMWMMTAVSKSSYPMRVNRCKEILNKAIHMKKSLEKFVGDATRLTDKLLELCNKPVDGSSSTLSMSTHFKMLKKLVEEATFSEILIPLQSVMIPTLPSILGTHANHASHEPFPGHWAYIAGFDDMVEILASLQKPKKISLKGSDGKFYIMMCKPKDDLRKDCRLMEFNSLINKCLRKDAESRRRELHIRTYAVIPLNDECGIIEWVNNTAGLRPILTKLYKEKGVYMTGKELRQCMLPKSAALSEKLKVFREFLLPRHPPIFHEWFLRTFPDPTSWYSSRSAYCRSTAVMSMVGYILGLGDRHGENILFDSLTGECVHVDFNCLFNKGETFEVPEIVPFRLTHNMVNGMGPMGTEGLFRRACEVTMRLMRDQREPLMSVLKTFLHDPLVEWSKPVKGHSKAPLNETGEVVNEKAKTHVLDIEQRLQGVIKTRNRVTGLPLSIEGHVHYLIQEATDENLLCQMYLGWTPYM

pKi | Structure (SMILES)
5.00 to 6.00 | CN(C)CC(=O)N[C@H]1CCN(c2cnc(N)c(-c3nc4ccccc4[nH]3)n2)C1 [Compound I-184, (S)-N-(1-(5-amino-6-(1H-benzo[d]imidazol-2-yl)pyrazin-2-yl)pyrrolidin-3-yl)-2-(dimethylamino)ethanamide]
6.00 to 7.00 | Cc1ccc2nc(-c3nc(N4CCNC(=O)C4)cnc3N)[nH]c2c1 [Compound I-7, 4-(5-amino-6-(6-methyl-1H-benzo[d]imidazol-2-yl)pyrazin-2-yl)piperazin-2-one]
> 7.00 | Nc1ncc(C2=CCN(C(=O)C3CCCC3)CC2)nc1-c1nnc(-c2ccccc2)o1 [Compound I-127, (4-(5-amino-6-(5-phenyl-1,3,4-oxadiazol-2-yl)pyrazin-2-yl)-5,6-dihydropyridin-1(2H)-yl)(cyclopentyl)methanone]
6.00 to 7.00 | CCOC(=O)N1CCN(c2cnc(N)c(-c3nnc(-c4ccccc4)o3)n2)CC1 [Compound I-232, ethyl 4-(5-amino-6-(5-phenyl-1,3,4-oxadiazol-2-yl)pyrazin-2-yl)piperazine-1-carboxylate]
5.00 to 6.00 | Cc1ccc2nc(-c3nc(N4CCN(c5cccc(F)c5)CC4)cnc3N)[nH]c2c1 [Compound I-47, 5-(4-(3-fluorophenyl)piperazin-1-yl)-3-(6-methyl-1H-benzo[d]imidazol-2-yl)pyrazin-2-amine]
6.00 to 7.00 | CCS(=O)(=O)NC1CN(c2cnc(N)c(-c3nnc(-c4ccccc4)o3)n2)C1 [Compound I-302, N-[1-[5-amino-6-(5-phenyl-1,3,4-oxadiazol-2-yl)pyrazin-2-yl]azetidin-3-yl]ethanesulfonamide]
6.00 to 7.00 | CC(C)(C)C(=O)N1CCN(c2cnc(N)c(-c3nnc(-c4ccccc4)o3)n2)CC1 [Compound I-198, 1-(4-(5-amino-6-(5-phenyl-1,3,4-oxadiazol-2-yl)pyrazin-2-yl)piperazin-1-yl)-2,2-dimethylpropan-1-one]
6.00 to 7.00 | CCC(=O)NC1CCN(c2cnc(N)c(-c3nnc(-c4ccc(CNC)cc4)o3)n2)CC1 [Compound I-366, N-(1-(5-Amino-6-(5-(4-((methylamino)methyl)phenyl)-1,3,4-oxadiazol-2-yl)pyrazin-2-yl)piperidin-4-yl)propionamide]
5.00 to 6.00 | CCS(=O)(=O)N1CCN(c2cnc(N)c(C(=O)/C=C/c3ccccc3)n2)CC1 [Compound I-73, (E)-1-(3-amino-6-(4-(ethylsulfonyl)piperazin-1-yl)pyrazin-2-yl)-3-phenylprop-2-en-1-one]
5.00 to 6.00 | CCNC(=O)[C@@H]1CCCN1c1cnc(N)c(-c2nnc(-c3ccc(CNC)cc3)o2)n1 [Compound I-348, (25)-1-[5-Amino-6-[5-[4-(methylaminomethyl)phenyl]-1,3,4-oxadiazol-2-yl]pyrazin-2-yl]-N-ethyl-pyrrolidine-2-carboxamide]
6.00 to 7.00 | CCS(=O)(=O)N1CC=C(c2cnc(N)c(-c3noc(-c4ccccc4)n3)n2)CC1 [Compound I-307, 5-(1-ethylsulfonyl-3,6-dihydro-2H-pyridin-4-yl)-3-(5-phenyl-1,2,4-oxadiazol-3-yl)pyrazin-2-amine]
6.00 to 7.00 | CCS(=O)(=O)N1CCN(c2cnc(N)c(-c3cc4ccccc4s3)n2)CC1 [Compound I-59, 3-(benzo[b]thiophen-2-yl)-5-(4-(ethylsulfonyl)piperazin-1-yl)pyrazin-2-amine]
6.00 to 7.00 | CNCc1ccc(-c2nnc(-c3nc(N4CCC[C@@H]4C)cnc3N)o2)cc1 [Compound I-361, 3-[5-[4-(Methylaminomethyl)phenyl]-1,3,4-oxadiazol-2-yl]-5-[(2S)-2-methylpyrrolidin-1-yl]pyrazin-2-amine]
6.00 to 7.00 | COC(=O)N1CC=C(c2cnc(N)c(-c3nc4ccccc4[nH]3)n2)CC1 [Compound I-244, methyl 4-(5-amino-6-(1H-benzo[d]imidazol-2-yl)pyrazin-2-yl)-5,6-dihydropyridine-1(2H)-carboxylate]
> 7.00 | Nc1ncc(C2=CCN(S(=O)(=O)c3ccccc3)CC2)nc1-c1nc2ccccc2[nH]1 [Compound I-210, 3-(1H-benzo[d]imidazol-2-yl)-5-(1-(phenylsulfonyl)-1,2,3,6-tetrahydropyridin-4-yl)pyrazin-2-amine]
> 7.00 | CNCc1ccc(-c2nnc(-c3nc(N4CCC5(CCN(C)C5=O)CC4)cnc3N)o2)cc1 [Compound I-344, 8-[5-Amino-6-[5-[4-(methylaminomethyl)phenyl]-1,3,4-oxadiazol-2-yl]pyrazin-2-yl]-2-methyl-2,8-diazaspiro[4.5]decan-1-one]
> 7.00 | Nc1ncc(C2=CCN(C(=O)c3c(F)cccc3F)CC2)nc1-c1nc2ccccc2[nH]1 [Compound I-215, (4-(5-amino-6-(1H-benzo[d]imidazol-2-yl)pyrazin-2-yl)-5,6-dihydropyridin-1(2H)-yl)(2,6-difluorophenyl)methanone]
5.00 to 6.00 | Nc1ncc(N2CCNCC2)nc1-c1nnc(-c2ccccc2)o1 [Compound I-37, 3-(5-phenyl-1,3,4-oxadiazol-2-yl)-5-(piperazin-1-yl)pyrazin-2-amine]

pKi | Structure (SMILES)
5.00 to 6.00 | COCCOCC(=O)N[C@H]1CCN(c2cnc(N)c(-c3nc4ccccc4[nH]3)n2)C1 [Compound I-181, (S)-N-(1-(5-amino-6-(1H-benzo[d]imidazol-2-yl)pyrazin-2-yl)pyrrolidin-3-yl)-2-(2-methoxyethoxy)ethanamide]
5.00 to 6.00 | Nc1ncc(N2CCN(C(=O)OCc3ccccc3)CC2)nc1-c1nnc(-c2ccccc2)o1 [Compound I-255, benzyl 4-(5-amino-6-(5-phenyl-1,3,4-oxadiazol-2-yl)pyrazin-2-yl)piperazine-1-carboxylate]
6.00 to 7.00 | Cc1ccc2nc(-c3nc(N4CCN(c5nccs5)CC4)cnc3N)[nH]c2c1 [Compound I-46, 3-(6-methyl-1H-benzo[d]imidazol-2-yl)-5-(4-(thiazol-2-yl)piperazin-1-yl)pyrazin-2-amine]
5.00 to 6.00 | Nc1ncc(N2CCN(C(=O)N3CCCC3)CC2)nc1-c1nc2ccccc2[nH]1 [Compound I-267, (4-(5-amino-6-(1H-benzo[d]imidazol-2-yl)pyrazin-2-yl)piperazin-1-yl)(pyrrolidin-1-yl)methanone]
5.00 to 6.00 | CC#CCOC(=O)N1CCN(c2cnc(N)c(-c3nc4ccccc4[nH]3)n2)CC1 [Compound I-272, but-2-ynyl 4-(5-amino-6-(1H-benzo[d]imidazol-2-yl)pyrazin-2-yl)piperazine-1-carboxylate]
5.00 to 6.00 | CNC(=O)C1CCN(c2cnc(N)c(-c3nc4ccc(C)cc4[nH]3)n2)CC1 [Compound I-13, 1-(5-amino-6-(6-methyl-1H-benzo[d]imidazol-2-yl)pyrazin-2-yl)-N-methylpiperidine-4-carboxamide]
> 7.00 | Nc1ncc(C2=CCN(C(=O)c3ccccc3)CC2)nc1-c1nc2ccccc2[nH]1 [Compound I-82, (4-(5-amino-6-(1H-benzo[d]imidazol-2-yl)pyrazin-2-yl)-5,6-dihydropyridin-1(2H)-yl)(phenyl)methanone]
> 7.00 | Nc1ncc(C2=CCN(C(=O)C3CC3)CC2)nc1-c1nc2ccccc2[nH]1 [Compound I-284, [4-[5-amino-6-(1H-benzimidazol-2-yl)pyrazin-2-yl]-3,6-dihydro-2H-pyridin-1-yl]-cyclopropyl-methanone]
6.00 to 7.00 | Nc1ncc(N2CCN(S(=O)(=O)c3cccnc3)CC2)nc1C(=O)Nc1ccccn1 [Compound I-233, 3-amino-N-(pyridin-2-yl)-6-(4-(pyridin-3-ylsulfonyl)piperazin-1-yl)pyrazine-2-carboxamide]
5.00 to 6.00 | Nc1ncc(N2CC[C@H](N)C2)nc1-c1nc2ccccc2[nH]1 [Compound I-39, (S)-5-(3-aminopyrrolidin-1-yl)-3-(1H-benzo[d]imidazol-2-yl)pyrazin-2-amine]
> 7.00 | CCS(=O)(=O)N1CC=C(c2cnc(N)c(C(=O)Nc3cc(C)ccn3)n2)CC1 [Compound I-167, 3-amino-6-(1-(ethylsulfonyl)-1,2,3,6-tetrahydropyridin-4-yl)-N-(4-methylpyridin-2-yl)pyrazine-2-carboxamide]
6.00 to 7.00 | Nc1ncc(C2=CCNCC2)nc1-c1nc2ccccc2[nH]1 [Compound I-66, 3-(1H-benzo[d]imidazol-2-yl)-5-(1,2,3,6-tetrahydropyridin-4-yl)pyrazin-2-amine]
6.00 to 7.00 | CCS(=O)(=O)N1CC=C(c2cnc(N)c(C(=O)Nc3ccccn3)n2)CC1 [Compound I-171, 3-amino-6-(1-(ethylsulfonyl)-1,2,3,6-tetrahydropyridin-4-yl)-N-(pyridin-2-yl)pyrazine-2-carboxamide]
> 7.00 | Nc1ncc(C2=CCN(C(=O)C3CCC3)CC2)nc1-c1nc2ccccc2[nH]1 [Compound I-200, (4-(5-amino-6-(1H-benzo[d]imidazol-2-yl)pyrazin-2-yl)-5,6-dihydropyridin-1(2H)-yl)(cyclobutyl)methanone]
5.00 to 6.00 | CN(C)S(=O)(=O)N1CCN(c2cnc(N)c(C(=O)Nc3ccccn3)n2)CC1 [Compound I-81, 3-amino-6-(4-(N,N-dimethylsulfamoyl)piperazin-1-yl)-N-(pyridin-2-yl)pyrazine-2-carboxamide]
6.00 to 7.00 | NCCC(=O)N1CC=C(c2cnc(N)c(-c3nc4ccccc4[nH]3)n2)CC1 [Compound I-338, 3-amino-1-(4-(5-amino-6-(1H-benzo[d]imidazol-2-yl)pyrazin-2-yl)-5,6-dihydropyridin-1(2H)-yl)propan-1-one]
6.00 to 7.00 | Nc1ncc(N2CCN(C(=O)C3CCCCC3)CC2)nc1-c1nc2ccccc2[nH]1 [Compound I-112, (4-(5-amino-6-(1H-benzo[d]imidazol-2-yl)pyrazin-2-yl)piperazin-1-yl)(cyclohexyl)methanone]
6.00 to 7.00 | Nc1ncc(N2CCN(C(=O)c3c(F)cccc3F)CC2)nc1-c1nc2ccccc2[nH]1 [Compound I-177, (4-(5-amino-6-(1H-benzo[d]imidazol-2-yl)pyrazin-2-yl)piperazin-1-yl)(2,6-difluorophenyl)methanone]
